Test results from US9481743B2, “Polyelectrolyte polymers, their manufacture and use” (priority 2013, dated 2016).
“Also recorded” adds a separate entry of the source.

Legend:
[1] = Solubility/miscibility tests; assay type: physicochemical
Procedure: Approximately 5-10 mg of compound was added to a test tube followed by the addition of 1.5 mL of solvent followed by 5 seconds of gentle stirring. If dissolution was not observed immediately, the mixture was further stirred and sonicated for 30 seconds. Material was deemed soluble if the resulting solution was free of particulate and haze, determined by visual inspection. […] If solutions remained hazy, they were referred to as emulsion mixtures.

[2] = Water contact angle of UV-cured HDDA films containing HFPPS; assay type: physicochemical; details: UV-cured film
Procedure: Nuclear Magnetic Resonance (NMR) spectroscopy was conducted on a Varian INOVA 400 MHz spectrometer (^1H, 400.09 MHz, ^31P{^1H} 161.82 MHz, ^19F, 376.15 MHz). All ^1H spectra were referenced relative to tetramethyl silane (CDCl3; ^1H δH=7.26 ppm and CO(CD3)2; ^1H δH=2.04). The chemical shifts for ^31P{H} NMR spectroscopy were referenced using an external standard (85% H3PO4; δP=0). The chemical shifts for ^19F{^1H} NMR spectroscopy were also referenced using an external standard (trifluorotoluene; δF=−63.9 ppm). Infrared spectra were recorded using a Bruker Tensor 27 spectrometer using attenuated total reflectance mode (ATR) using a ZnSe crystal. Sonication of the UV curable formulations was conducted in an E60H Elmasonic sonicator at frequency of 37 kHz using an effective power of 100 W. Deposition of the formulation was performed using a 25-micron Meyer Rod purchased from Gardco on microscope slides purchased from Technologist Choice unless otherwise noted. UV curing was performed using a modified UV curing system purchased from UV Process and Supply Inc. with a mercury bulb. Samples were irradiated with an energy density of 1956 mJ/cm^2 and an irradiance of 1383 mW/cm^2. Water contact angles (WCA) were measured using a Kruss DSA100 Drop Shape Analyzer and analyzed using Drop Shape Analysis. Thermal degradation was determined using Thermal Gravimetric Analysis (TGA) on a Q600 SDT TA instrument. A sample of 5-15 mg was placed in an aluminum cup and heated at a rate of 10° C./min from room temperature to 600° C. under nitrogen atmosphere (100 mL/min). Glass transition temperatures were determined using Differential Scanning calorimetry (DSC) on a DSC Q20 TA instrument. A sample of approximately 10 mg was placed in an aluminum Tzero pan and underwent a heat/cool/heat profile at 10° C./min under nitrogen atmosphere (100 mL/min). Data was acquired from the final heat cycle of the heat/cool/heat profile. Melting points of all HFPS were determined using a Gallenkamp Variable Heater in air. Mass spectrometry was recorded in both positive and negative ion modes using electrospray ionization (ESI) Micromass LCT spectrometer. Elemental analysis (EA) was performed by the Elemental Analysis Laboratory at the Université de Montreal. Time-of-fight Secondary Ion Mass Spectrometry (TOF-SIMS) measurements were performed using an ION-TOF (Gmbh) TOF-SIMS IV equipped with a Bi cluster liquid metal ion source. A 25 keV Bi3^+ cluster primary pulsed ion beam (10 kHz, pulse width 20 ns) was used to bombard the surface to generate secondary ions. The positive or negative secondary ions were extracted from the sample surface, mass separated and detected via a reflectron-type time-of-flight analyser. Depth profiles were obtained by repeating the following cycle: sputtering an area of 500 μm×500 μm on the sample surface with a 3 keV Cs^+ ion beam for 0.5 s followed by, with a delay of 2 s, collecting mass spectra at 128×128 pixels with the Bi3^+ ion beam over an area of 245 μm×245 μm in the center of the sputtered area.
A desired amount of photoinitiator, crosslinker, and phosphonium salt were weighed and combined in screw top vials. The mixture was then insonated at 45° C. for 20 min until the solutions were free of particulate and haze. After cooling to room temperature, the solutions were cast on glass slides and irradiated with UV light three times.

[3] = Static water contact angle of UV-cured phosphonium films with alumina microparticles; assay type: physicochemical
Procedure: Solution ^1H, ^19F{^1H} and ^31P{^1H} NMR spectra were recorded on a Varian INOVA 400 MHz spectrometer (^1H; 400.09 MHz, ^31P; 161.82 MHz, ^19F; 376.15 MHz). All samples for ^1H NMR spectroscopy were referenced to the residual protons in the deuterated solvents (^1H: chloroform-d 7.26; acetone-d6 2.05). ^31P{^1H} and ^19F{^1H} NMR spectroscopic chemical shifts were reported relative to external standards (85% H3PO4: 0.00 ppm and CF3C6H5: −63.9 ppm). Mass spectrometry (MS) measurements were recorded in positive and negative ion modes using an electrospray ionization (ESI) Micromass LCT spectrometer. Infrared spectra were recorded using a Bruker Tensor 27 spectrometer from Bruker Optics Inc. Samples were measured by attenuated total reflectance (ATR) infrared spectroscopy, using a zinc selenide crystal. Melting points were determined using a Gallenkamp Variable Heater in air. Scanning electron microscope images of the surfaces were obtained using a Hitachi S-4500 field emission instrument, operated at an electron beam voltage of 10 kV equipped with a Quartz Xone EDX system. AFM was performed on a Park Systems XE-100 in air with a relative humidity of ˜40%. […] Water contact angles were measured on a Kruss DSA 100 with DSA drop shape analysis software. Using an automated dispensing system, static 5 μL droplets of distilled water were deposited in different areas upon the surface. The contact angles were measured on the left and right side of each drop on at least ten droplets, resulting in a minimum of twenty angles per film. The reported contact angle is the average of all measurements.
The general procedure for film preparation and curing was as follows: the chosen phosphonium salt (95%) and 1-hydroxycyclohexylphenylketone (CPK, 5%) were dissolved in acetone. Microparticles (when included) were then added to the solution, the resulting mixture insonated in a sonic bath (Elasmonic E 60H, 100 Watts) for 10 minutes and then applied to pre-treated polyester sheets (DuPont) with a pipette. A #10 wire Meyer rod (Gardco) was used to spread the mixture evenly across the polyester substrate, producing a wet thickness of approximately 25 μm. A UV-curing conveyor (UV Process Supply) was set to allow a time exposure of ˜3 s (UV-light irradiance over this time frame was measured at 760 mJ/cm^2). The substrate with the uncured film was taped to a metal sheet and passed through the UV-conveyor.

Bacteria = assay: Antimicrobial efficacy of [4]Cl films (same procedure, bacterium not given); assay type: cell-based
Procedure: A desired amount of 2-hydrox-2-methy-1-phenyl-propanone (5 wt %), diacrylate crosslinker (EB 130, a cyclic aliphatic diacrylate) and the acrylate-appended phosphonium salt were weighed and combined in screw top vials. The mixture was then insonated at 45° C. for 20 min until the solutions were free of particulate and haze. After cooling to room temperature, the solutions were cast on polyester films and irradiated with UV light three times. Leached films were treated with H2O (Milli-Q) in a wrist action shaker for 4 hours, followed by washing with H2O (2×10 mL) and air drying. Both leached and unleached films were subjected to the antibacterial test (below).
The antibacterial activities of the charged surfaces against Gram-negative bacteria Escherichia coli […] were studied using the antibacterial drop-test. E. coli precultured in 15 mL of nutrient broth (Difco™ BD) at 37° C. for 24 h, was washed by centrifuging at 4000 rpm for 10 min. After removing the supernatant, the cells were washed with phosphate buffered saline (PBS) twice and re-suspended and diluted to approximately 10^6 colony forming units (CFU)/mL in PBS solution. The samples were placed in sterilized Petri dishes. 100 μL of PBS solution with bacteria was added dropwise onto sterilized surfaces until completely covered. The petri dishes were sealed and placed in an incubator at 37° C. with the humidity 46%. After 4 hr, the bacteria were washed from the surface of the sample by using 10 mL PBS in the sterilized Petri dish. From this solution, 100 μL was spread onto solid plate count agar (Difco™ BD). After incubation for 24 h at 37° C., the number of surviving bacterial colonies on the Petri dishes were counted. The results after multiplication with the dilution factor were expressed as CFU per mL. The above experiments were carried out in triplicate for each sample. The percentage of killed bacteria was calculated as [(CFU of initial bacterial suspension−CFUs following surface contact)/CFU of initial bacterial suspension]×100.
As phosphonium content in the films increased, both an increase in surface charge density and bacterial activity was observed. […] The pronounced difference in films containing 25 and 30 wt % is believed to be due to differences in surface energy between EB 130 and the phosphonium salt. The non-polar nature of the crosslinking agent has lower surface energy than that of the phosphonium salt. […] Upon the addition of sufficient phosphonium salt, cations became present at the surface, as detected by the fluorescein dye experiment and exemplified by the increase in antibacterial efficacy. […] Films were prepared and analyzed following the same procedure.

[4] = Density of surface phosphonium cations by UV-vis (fluorescein dye); assay type: physicochemical
Procedure: Characterization by FTIR-ATR spectroscopy confirmed the conversion of acrylate functionality post polymerization. Percent cure was determined using a literature procedure. The intensity of the acrylate vibration at 810 cm^−1 was compared to the C═O vibration at 1750 cm^−1 both before and after irradiation. […] The density of surface phosphonium cations was determined by UV-vis spectroscopy as described in a literature procedure.
Characterization by FTIR-ATR spectroscopy confirmed the conversion of acrylate functionality post polymerization. […] The density of surface phosphonium cations was determined by UV-vis spectroscopy as described in a literature procedure^23. […] This assumes a 1:1 ratio of positive and negative charge on the surface.
Before deposition of [Au25L18]^−, the number of accessible charges on the PPF was quantified. A known protocol utilizing fluorescein dye was employed to determine the value for the above system and to relate this quantity back to the percentage of phosphonium monomers that were included in the original formulation.^23 This procedure is commonly used as a characterization technique for films containing surface-bound quaternary salts. […] At 30 wt %, a dramatic increase in the number of quaternary charges was observed (1.5×10^15 cations/cm^2). Increasing the salt content to 37.5 and 47.5 wt % yielded surfaces with 8.2×10^15 and 1.4×10^16 cations/cm^2, respectively. […] Use of low melting phosphonium salts permits formation of a formulation having low viscosity despite the high ion content, allowing for ease of handling and deposition. Use of high melting point organic salts in a similar fashion generates formulations with relatively high viscosities or significant solubility issues, which manifest themselves in poor films. Advantages of the phosphonium-based acrylate monomer in the fabrication of the charged surfaces can thus be seen.

[5] = film with 50 w % Al2O3 microparticles (±3)
[6] = particle-free UV-cured film of the salt with 5 w % CPK on polyester

In the case of `C=Cc1ccc(C[P+](CCC(F)(F)C(F)(F)C(F)(F)C(F)(F)F)(CCC(F)(F)C(F)(F)C(F)(F)C(F)(F)F)CC(C)CC(C)(C)C)cc1.O=S(=O)([N-]S(=O)(=O)C(F)(F)F)C(F)(F)F` (stereo not drawn) [[1]NTf2], the “Solubility (in words)” value ([1]; chloroform) is reported as “soluble”, the “Solubility (in words)” value ([1]; dichloromethane) is reported as “soluble” and the Water contact angle ([2]; 0.1 wt % in HDDA) is reported as 82 °. The Water contact angle ([2]; 0.5 wt % in HDDA) was 84 °, the Water contact angle ([2]; 1 wt % in HDDA) was 87 ° and the Water contact angle ([2]; 1.5 wt % in HDDA) was 87 °.
For `C=Cc1ccc(C[P+](CCC(F)(F)C(F)(F)C(F)(F)C(F)(F)F)(CCC(F)(F)C(F)(F)C(F)(F)C(F)(F)F)CCC(F)(F)C(F)(F)C(F)(F)C(F)(F)F)cc1.O=S(=O)([N-]S(=O)(=O)C(F)(F)F)C(F)(F)F` [[2]NTf2], the WCA [3, 5] was 141 °, the WCA [3, 6] was “≈ 90 °” and the Water contact angle ([2]; 0.05 wt % in HDDA) was 80 °. For the same molecule, the Water contact angle ([2]; 0.1 wt % in HDDA) was 89 °, the Water contact angle ([2]; 0.5 wt % in HDDA) was 91 ° and the Water contact angle ([2]; 1 wt % in HDDA) was 92 °. For the same molecule, the Water contact angle ([2]; 1.5 wt % in HDDA) was 92 °.
With `C=Cc1ccc(C[P+](CCC(F)(F)C(F)(F)C(F)(F)C(F)(F)F)(CCC(F)(F)C(F)(F)C(F)(F)C(F)(F)F)CCC(F)(F)C(F)(F)C(F)(F)C(F)(F)F)cc1.[Cl-]` [[2]Cl] the WCA [3, 6] was “≈ 80 °”.
For `C=Cc1ccc(C[P+](CCC(F)(F)C(F)(F)C(F)(F)C(F)(F)F)(CCC(F)(F)C(F)(F)C(F)(F)C(F)(F)F)CC(C)CC(C)(C)C)cc1.[Cl-]` (stereo not drawn) [[1]Cl], the WCA [3, 5] was 88 ° and the WCA [3, 6] was “≈ 80 °; also recorded: ≈ 90 °”.
In the case of `C=CC(=O)OCCC[P+](CCCC)(CCCC)CCCC.[Cl-]` [[4]Cl, (3-(acryloyloxy)propyl)tributylphosphonium chloride], the “% Bacteria killed” value (Bacteria; 15% [4]Cl film) is reported as 18%, the “% Bacteria killed” value (Bacteria; 20% [4]Cl film) is reported as 18% and the “% Bacteria killed” value (Bacteria; 25% [4]Cl film) is reported as 71%. For the same molecule, the “% Bacteria killed” value (Bacteria; 30% [4]Cl film) was 71%, the “% Bacteria killed” value (Bacteria; 37.5% [4]Cl film) was 75% and the “% Bacteria killed” value (Bacteria; 47.5% [4]Cl film) was 100%. The Charge/Unit area ([4]; 15% [4]Cl film) was 0 ×10^x Y^+/cm^2, the Charge/Unit area ([4]; 20% [4]Cl film) was 5.6 × 10^14 ×10^x Y^+/cm^2 and the Charge/Unit area ([4]; 25% [4]Cl film) was 3.46 × 10^15 ×10^x Y^+/cm^2. The Charge/Unit area ([4]; 30% [4]Cl film) was 9.07 × 10^15 ×10^x Y^+/cm^2, the Charge/Unit area ([4]; 37.5% [4]Cl film) was 1.24 × 10^16 ×10^x Y^+/cm^2 and the Charge/Unit area ([4]; 47.5% [4]Cl film) was 2.54 × 10^16 ×10^x Y^+/cm^2.
With `C=Cc1ccc(C[P+](CCC(F)(F)C(F)(F)C(F)(F)C(F)(F)C(F)(F)C(F)(F)F)(CCC(F)(F)C(F)(F)C(F)(F)C(F)(F)C(F)(F)C(F)(F)F)CC(C)CC(C)(C)C)cc1.[Cl-]` (stereo not drawn) [[3]Cl] the “Solubility (in words)” value ([1]; chloroform) was “soluble” and the “Solubility (in words)” value ([1]; dichloromethane) was “soluble”.
